We go through one molecule from paper PMC6078987, “Molecular insights into antibiotic resistance - how a binding protein traps albicidin” (Nature Communications, 2018).

For one experiment, the target named is T1, AlbAS (Klebsiella oxytoca, UniProt Q8KRS7).
T1 sequence (Q8KRS7 1-221): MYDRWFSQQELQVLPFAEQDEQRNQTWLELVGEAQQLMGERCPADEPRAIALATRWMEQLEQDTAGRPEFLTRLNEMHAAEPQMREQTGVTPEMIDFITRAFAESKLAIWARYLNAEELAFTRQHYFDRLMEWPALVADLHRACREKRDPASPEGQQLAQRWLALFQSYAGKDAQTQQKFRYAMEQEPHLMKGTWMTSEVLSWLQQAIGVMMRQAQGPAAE
Nature of the experiment: CD-detected thermal unfolding of AlbAS. The settings on record: 1.5-fold ligand, 20 µM protein; AlbAS alone 66 °C. It is filed as binding. On the procedure:
For determination of the melting temperature and information on protein-ligand stability, CD measurements were performed on a J-815 CD spectrometer (Jasco, Groß-Umstadt, Germany). Protein samples (2.0 mM for AlbAS and 0.2 mM for AlbAL) were saturated with 1.5-fold albicidin and diluted to a protein concentration of 20 μM in order to ensure a final DMSO content of only 0.05% for AlbAS and 0.5% for AlbAL. A volume of 250 μL of the reaction mixture was transferred into a quartz cuvette with 1 mm path length. Six far-UV spectra were accumulated in a wavelength range of 195–300 nm (203–300 nm for AlbAL) at three different temperatures (10, 21, and 90 °C) with a scanning speed of 50 nm s^−1. For evaluation of the spectra the measured buffer blank (50 mM sodium hydrogen phosphate and 100 mM NaCl, pH 6.8) was subtracted from the averaged spectra. The temperature curves were recorded from 10–90 °C in 0.5 °C min^−1 steps while monitoring the ellipticity at 215 nm (218 nm for ALbAL). […] The melting temperatures of AlbAS, AlbAS–albicidin, AlbAS–compound 5, AlbAS–compound 7, AlbAL, and AlbAL–albicidin were determined by nonlinear regression of the measured data using Eq. (1). […] The Tm was thus determined by fitting the second transition representing the stabilized domain/species. […]

The test system of a further experiment is E. coli DH5α. Nature of the experiment: Agar diffusion assay. It counts as cell-based. How it is done: To verify the neutralizing ability of AlbAS, AlbAL, AlbASM, AlbASCTD, or AlbASNTD against different compounds, agar diffusion assays with the respective compounds were performed. An overnight culture of E. coli DH5α was diluted to an OD600 of 0.05 with 0.75% LB-agar. The protein-albicidin reaction mixture consisted of a 1:1 mixture of 40 μM albicidin (or derivatives) with 40 μM protein (either AlbAS or its variants AlbAL, AlbASM, AlbASNTD, and AlbASCTD). The mixture was incubated for 20 min at room temperature in the dark. Reaction mixtures of 30 μL were transferred in triplicates of 2 mm holes on the inoculated agar plate. The plates were evaluated concerning growth-inhibition zone after incubation for 18 h at 37 °C.
For orientation: A growth-free zone around the sample is the usual read-out of agar diffusion tests.

Experiment [1] relates to AlbAS in competition with gyrase construct GyrBA59. Description: NMR-based in vitro competition experiment of AlbAS and GyrBA59. The settings on record: 30 µM each of GyrBA59, AlbAS and albicidin; MgCl2, ATP, pBR322. It is filed as binding, E. coli. On the procedure:
For the competition experiment with the DNA gyrase construct GyrBA59, 1.7 mM ATP was incubated with 3.4 mM MgCl2 for 10 min. Subsequently, 30 µM GyrBA59 and 3 µg supercoiled pBR322 plasmid DNA (Inspiralis) were added and incubated for another 10 min. Finally, 30 µM ^15N-labeled AlbAS were added to the mixture followed by 30 µM albicidin (10% D2O and 5% DMSO final concentration). Owing to the low protein concentrations (to achieve a 1:1 ratio of gyrase and AlbAS), a ^1H-^15N band-selective optimized flip-angle short-transient heteronuclear multiple quantum coherence (SOFAST HMQC)[44] experiment was performed. The ^1H-^15N SOFAST HMQC was recorded with 2048 scans and with acquisition times of 45 and 38 ms for the ^1H and ^15N dimensions, respectively. Measurements were performed at 303.2 K. The control experiment was performed under the same conditions but without the addition of MgCl2, ATP, pBR322 plasmid DNA, and GyrBA59.

The next experiment relates to Escherichia coli. Also noted: method as in PMID 17074789, PMID 25504839. As to conditions: cited from earlier work.
The target of a further experiment is DNA gyrase. The arrangement: method as in PMID 17074789. As to conditions: read-out: half maximal inhibitory concentration (IC50); cited from earlier work.

Converted amounts (≈) assume the structure as drawn. “Also recorded” adds a separate entry of the source.

As usually defined, the MIC is the smallest concentration in the dilution series that meets the test's criterion for growth inhibition. As to `COc1c(NC(=O)c2ccc(NC(=O)c3ccc(NC(=O)[C@H](CC#N)NC(=O)c4ccc(NC(=O)/C(C)=C/c5ccc(O)cc5)cc4)cc3)c(OC)c2O)ccc(C(=O)O)c1O` [albicidin], the “melting temperature Tm of AlbAS upon ligand binding” value at AlbAS was determined as 81 °C. Besides, the “neutralization of antibacterial activity by AlbAL” value in the experiment with E. coli DH5α (40 µM compound pre-incubated with 40 µM AlbAL) is on record as “albicidin-neutralizing effect”. Moreover, the “neutralization of antibacterial activity by AlbAS” value in the experiment with E. coli DH5α (40 µM compound pre-incubated with 40 µM AlbAS) is “albicidin-neutralizing effect”. Also, the “neutralization of antibacterial activity by AlbASCTD” value in the experiment with E. coli DH5α (40 µM compound with 40 µM AlbASCTD) is recorded as “failed to suppress the antibacterial effects; also recorded: not able to neutralize albicidin”. In addition, the “neutralization of antibacterial activity by AlbASM (N75A, R181A, Q205A)” value in the experiment on E. coli DH5α (40 µM compound with 40 µM AlbASM) was “not capable of efficiently suppressing the antibacterial activity”. Besides, the “neutralization of antibacterial activity by AlbASNTD” value in the experiment on E. coli DH5α (40 µM compound with 40 µM AlbASNTD) is “failed to suppress the antibacterial effects; also recorded: not able to neutralize albicidin”. Further, the “competition between AlbAS and GyrBA59 for the ligand (in words)” value in experiment [1] is on record as “AlbAS fully populated the albicidin-bound state”. For the same molecule, the MIC in the experiment on Escherichia coli was 0.063 µg/mL (≈ 0.0747 µM). In addition, the IC50 at DNA gyrase is 40 nM.
